Source: patent US9320734B2, “Small molecule inhibitors of the pleckstrin homology domain and methods for using same” (Board of Regents, The University of Texas System, priority 2008, dated 2016)
Values after ≈ are worked out from the molar mass of the structure shown.

Tests used:
AKT PH domain = AKT PH domain (Homo sapiens (Human), UniProt P31749); experiment: SPR spectroscopy direct binding (Biacore 2000); conditions: purified AKT PH domain, SPR (Biacore 2000); NB = not binding
Experimental: (§1) Binding assays using SPR and an ELISA competitive binding assay were used to measure the binding affinity (KD) of the compounds to all three PH domains. SPR was carried out as described above. […] Purified GST-PH domains were incubated with increasing concentrations of the compounds under anylsis for about 4 hours in 0.2 M carbonate buffer pH 9.4 and were added to the 96-well plate and incubated overnight at 4° C. Following incubation, the plate was washed 4 times with phosphate buffered 0.9% NaCl (PBS), blocked with 3% bovine serum albumin (BSA) in PBS and 0.01% Tween for 1 hour, washed again 4 times with PBS and mouse monoclonal anti-glutathione-S-transferase antibody in 3% BSA (1:2000) was added for 1 hr at room temperature with shaking. The plate was washed 4 times with PBS and an anti-mouse IgG horseradish peroxidase coupled antibody (dilution 1:2000 in 3% BSA) was added for 1 hr. After 4 washes with PBS, 2,2′-azinobis[3-ethylbenzothiazoline-6-sulfonic acid]-diammonium salt (ABST) was added and the reaction was allowed to develop for 30 min.

[1] = system: MiaPaca-2 pancreatic cell line; experiment: Apoptosis, morphological assay, MiaPaCa-2 cells; assay type: cell-based, human; conditions: MiaPaca-2, morphological assay
Source text: (§2) AKT inhibition leads to cellular apoptosis.

[2] = system: phospho-Ser473-AKT in MiaPaCa-2 cells; experiment: Cellular AKT inhibition, Western blot phospho-Ser473-AKT, MiaPaCa-2 cells; conditions: Homo sapiens, MIA PaCa-2, read-out: pAKT inhibition (IC50)
[3] = system: phospho-Ser473-AKT in Panc-1 cells; experiment: Cellular AKT inhibition, Western blot phospho-Ser473-AKT, Panc-1 cells; conditions: Homo sapiens, PANC-1, read-out: pAKT inhibition (IC50)
[4] = system: Panc-1 pancreatic cell line; experiment: Apoptosis, morphological assay, Panc-1 cells; assay type: cell-based, human; conditions: Panc-1, morphological assay
Source text: as §2

[5] = assay type: in vivo; conditions: single doses up to 250 mg/kg; preliminary studies
Experimental: (§3) This observation was tested using pharmacodynamic and pharmacokinetic studies. […]. […] Western blotting was performed as described above. […].

HaCat-II,4 cells = experiment: Apoptosis (PARP cleavage), HaCaT-II,4 cells; assay type: cell-based, human; conditions: 10 μM
Source text: (§4) Normal morphogenesis and differentiation features of skin keratinocytes are retained in the HaCaT cultures.

BxPC-3 pancreatic cancer = experiment: Antitumor activity, oral dosing, BxPC-3 xenograft; assay type: in vivo, scid mice; conditions: BxPC-3, oral
HaCaT cells = experiment: Apoptosis (PARP cleavage), HaCaT cells; assay type: cell-based, human; conditions: 10 μM
Source text: as §4

A549 nsc lung cancer = experiment: Antitumor activity, oral dosing, A549 xenograft; assay type: in vivo, scid mice; conditions: 200 mg/kg BID × 10 D
[6] = system: phospho-Ser473-AKT in BxPC-3; experiment: Cellular AKT inhibition, Western blot phospho-Ser473-AKT, BxPC-3 cells; assay type: cell-based, human; conditions: BxPC-3 cells, Western blot
SKOV-3 ovarian cancer = experiment: Antitumor activity, oral dosing, SKOV-3 xenograft; assay type: in vivo, scid mice; conditions: SKOV-3, oral, 250 mg/kg BID × 10 D
MCF-7 breast cancer = experiment: Antitumor activity, oral dosing, MCF-7 xenograft; assay type: in vivo, scid mice; conditions: MCF-7, oral
PC3 prostate cancer = experiment: Antitumor activity, oral dosing, PC3 xenograft; assay type: in vivo, scid mice; conditions: 125 mg/kg BID × 5 D
[7] = Plasma levels of compound 104 (HPLC); assay type: in vivo, scid mice; conditions: single 125 mg/kg i.p. dose, between 1 and 6 h
Experimental: as §3

[8] = system: total AKT in scid mouse skin; experiment: Topical application, total AKT immunohistochemistry in skin; assay type: in vivo, scid mice; conditions: 20 mg/ml in 0.1 ml acetone topically; between 1 and 4 hours, reappears after 24 hours
Experimental: Skin biopsies were taken and immunohistochemistry for AKT was performed on the sections. […] Staining was measured by quantitative immunohistochemistry with correction for non-specific background staining (p<0.05). Phospho-Ser^473-AKT was not detectable in dermal layer. FIG. 15C summarizes the effects of compound over a 24 hour period as determined by Western blot analysis performed as described above.

[9] = system: BXPC3 pancreatic tumor cells, MCF-7 breast tumor cells, and A549 nscl lung cancer cells; experiment: Antitumor activity of alkyl chain analogs in subcutaneous xenografts (FIG. 9); assay type: in vivo; conditions: 200 mg/kg twice a day for 10 days
[10] = system: HT-29 colon cancer xenografts; experiment: Antitumor activity, HT-29 colon cancer xenografts; assay type: in vivo, scid mice; conditions: orally for 5 days, daily dose 250 mg/kg
Experimental: (§5) AKT and phospo-Ser-AKT values are the mean of 4 mice and bars are S.E., *p<0.05, **p<0.01. Additionally, 24 hours after administration there was an unexpected significant decrease in the apparent total AKT concentration compared to an actin loading control.

[11] = system: phospho-Ser473 AKT in NIH3T3 cells; experiment: Cellular AKT inhibition, phospho-Ser473 AKT, NIH3T3 cells; assay type: cell-based; conditions: mouse NIH3T3, phospho-Ser473 AKT
Experimental: (§6) AKT activity was measured by Western blotting using anti-[…] AKT antibody. Downstream targets of AKT were detected also by Western blotting using specific anti-phospho antibodies and anti-actin was used as a loading control.

[12] = system: phospho-Ser-AKT in HT-29 xenograft tumors; experiment: Tumor phospho-Ser-AKT in HT-29 xenografts; assay type: in vivo, scid mice
Experimental: as §5

[13] = system: phospho-Ser473-AKT in HT-29 cells; experiment: Cellular AKT inhibition, Western blot phospho-Ser473-AKT, HT-29 cells; assay type: cell-based; conditions: human HT-29 colon cancer cells
Experimental: as §2, §6

[14] = Pharmacokinetics of compound 316, plasma concentrations
Solubility = assay type: physicochemical
HT-29 cells [15] = experiment: Metabolic stability under cell culture conditions (incubation with HT-29 cells); assay type: in vitro ADME, human; conditions: for Metabolic half life: incubating with HT-29 cells at maximum DMEM concentration at 37° C.
Source text: Compound 6 was too insoluble to obtain data.

PH domain of PDK1 = PH domain of PDK1 (Homo sapiens (Human), UniProt O15530); experiment: SPR direct binding to PDK1 PH domain; conditions: NB = no measurable binding, read-out: PDK1 PH mKD
Experimental: as §1

HT-29 cells [16] = experiment: Cell survival / cytotoxicity, MTT assay, HT-29 cells; assay type: cell-based, human; conditions: HT-29 cells; NI = not inhibitory; read-out: Cytotoxicity (IC50 μM)
IRS1 PH domain = IRS1 PH domain (Homo sapiens (Human), UniProt P35568); experiment: SPR direct binding to IRS1 PH domain; conditions: NB = no measurable binding, read-out: IRS1 PH mKD
Experimental: as §1

PH domain of PDK1, sequence (O15530 459-550): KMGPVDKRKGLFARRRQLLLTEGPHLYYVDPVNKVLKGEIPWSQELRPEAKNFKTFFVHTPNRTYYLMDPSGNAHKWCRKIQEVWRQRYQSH
IRS1 PH domain, sequence (P35568 12-115): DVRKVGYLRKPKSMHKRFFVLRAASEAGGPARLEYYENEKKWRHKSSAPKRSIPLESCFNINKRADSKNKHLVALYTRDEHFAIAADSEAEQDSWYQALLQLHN
AKT PH domain, sequence (P31749 5-108): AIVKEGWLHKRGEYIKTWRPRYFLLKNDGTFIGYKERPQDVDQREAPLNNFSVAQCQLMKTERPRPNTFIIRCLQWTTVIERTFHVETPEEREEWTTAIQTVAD

SMILES: CC(=O)Nc1ccc(S(=O)(=O)Nc2nncs2)cc1 [Compound 102, N-(4-(N-1,3,4-Thiadiazol-2-ylsulfamoyl)phenyl)acetamide]
- KD (AKT PH domain): did not appear to bind directly
- Apoptosis at 20 μmol/L [1]: 10.3 ± 2.1%
- IC50 [2]: > 50 µM
- IC50 [3]: > 50 µM
- Apoptosis at 20 μmol/L [4]: 6.8 ± 0.9/ %

SMILES: CCCCCCCCCCCCc1ccc(S(=O)(=O)Nc2nncs2)cc1 [Compound 104, 4-Dodecyl-N-(1,3,4-thiadiazol-2-yl)benzenesulfonamide]
- Apoptosis at 20 μmol/L [1]: 31.3 ± 1.6%
- toxicity [5]: not toxic
- apoptosis (HaCat-II,4 cells): 60%
- Growth rate mm^3/10 days (BxPC-3 pancreatic cancer; 100 mg/kg BID × 10 D): 181 ± 52 mm^3/10 days
- T/C % (BxPC-3 pancreatic cancer; 100 mg/kg BID × 10 D): 64.8%
- Growth rate mm^3/10 days (BxPC-3 pancreatic cancer; 125 mg/kg BID × 5 D): 67 ± 35 mm^3/10 days
- T/C % (BxPC-3 pancreatic cancer; 125 mg/kg BID × 5 D): 29.4%
- Growth rate mm^3/10 days (BxPC-3 pancreatic cancer; 200 mg/kg BID × 10 D): 77 ± 44 mm^3/10 days
- T/C % (BxPC-3 pancreatic cancer; 200 mg/kg BID × 10 D): 27.6%
- Growth rate mm^3/10 days (BxPC-3 pancreatic cancer; 250 mg/kg BID × 5 D): 46 ± 53 mm^3/10 days
- T/C % (BxPC-3 pancreatic cancer; 250 mg/kg BID × 5 D): 20.1%
- apoptosis (HaCaT cells): 80%
- Growth rate mm^3/10 days (A549 nsc lung cancer): 182 ± 47 mm^3/10 days
- T/C % (A549 nsc lung cancer): 44.1%
- GSK3β and p70S6K phosphorylation [6]: inhibited in a dose-dependent manner
- Growth rate mm^3/10 days (SKOV-3 ovarian cancer): 122 ± 16 mm^3/10 days
- T/C % (SKOV-3 ovarian cancer): 28.3%
- Growth rate mm^3/10 days (MCF-7 breast cancer; 100 mg/kg BID × 10 D): 383 ± 139 mm^3/10 days
- T/C % (MCF-7 breast cancer; 100 mg/kg BID × 10 D): 93.4%
- Growth rate mm^3/10 days (MCF-7 breast cancer; 200 mg/kg BID × 10 D): 156 ± 30 mm^3/10 days
- T/C % (MCF-7 breast cancer; 200 mg/kg BID × 10 D): 38.0%
- Growth rate mm^3/10 days (PC3 prostate cancer): 470 ± 121 mm^3/10 days
- T/C % (PC3 prostate cancer): 60.3%
- plasma concentration [7]: a peak corresponding to compound 104 was detected in the plasma
- Total Akt staining in skin [8]: decreased significantly overtime
- Apoptosis at 20 μmol/L [4]: 40.0 ± 2.9/ %

SMILES: CCCCc1ccc(S(=O)(=O)Nc2nncs2)cc1 [Compound 155, 4-Butyl-N-(1,3,4-thiadiazol-2-yl)benzenesulfonamide]
- antitumor activity [9]: inactive

SMILES: CC1=NN(C(=O)c2ccc(Cl)cc2)C(=O)C1/N=N/c1ccc(S(=O)(=O)Nc2ncccn2)cc1 (centres unmarked) [Compound 316, (E)-4-((1-(4-chlorobenzoyl)-3-methyl-5-oxo-4,5-dihydro-1H-pyrazol-4-yl)diazenyl)-N-(pyrimidin-2-yl)benzenesulfonamide]
- antitumor activity [10]: no activity
- toxicity, repeated dose (Toxicity of compound 316; five daily doses of 250 mg/kg i.p.): moderate neutropenia but no other sign of toxicity
- toxicity, single dose (Toxicity of compound 316; single dose of up to 250 mg/kg, preliminary studies): no toxicity
- IC50 [11]: 4 µM
- tumor phospho-Ser-AKT ([12]; 4 hours after a single 250 mg/kg dose): inhibition of tumor phospho-Ser-AKT was observed
- tumor phospho-Ser-AKT ([12]; 24 hours after a single 250 mg/kg dose): appears to lost
- IC50 [13]: 13 µM
- elimination ([14]; 250 mg/kg): eliminated relatively rapidly over about a 24 hr period
- peak plasma concentration ([14]; single dose 250 mg/kg i.p.): 1.4 µM
- peak plasma concentration ([14]; single dose 250 mg/kg oral): 0.6 µM

SMILES: CC1=NN(C(=O)c2ccc(C(C)(C)C)cc2)C(=O)C1/N=N/c1ccc(S(=O)(=O)Nc2ncccn2)cc1 (centres unmarked) [Compound 332]
- Solubility (Solubility): 28.6 µM (≈ 14.9 µg/mL)
- IC50 [11]: > 20 µM
- IC50 [13]: > 20 µM
- Metabolic half life (HT-29 cells [15]): 1.52 h
- Kd (PH domain of PDK1): 3.57 µM
- IC50 (HT-29 cells [16]): 25 µM

SMILES: CC1=NN(C(=O)c2ccc(N)cc2)C(=O)C1/N=N/c1ccc(S(=O)(=O)Nc2ncccn2)cc1 (centres unmarked) [Compound 333]
- Solubility (Solubility): 12.9 µM (≈ 6.17 µg/mL)
- IC50 [13]: > 20 µM
- Metabolic half life (HT-29 cells [15]): >8 h
- stability under cell culture conditions (HT-29 cells [15]; over the time period studied): did not appear to breakdown
- Kd (IRS1 PH domain): 0.14 ± 0.02 µM

SMILES: CC1=NN(C(=O)c2ccc(O)cc2)C(=O)C1/N=N/c1ccc(S(=O)(=O)Nc2ncccn2)cc1 (centres unmarked) [Compound 360]
- Solubility (Solubility): 13.1 µM (≈ 6.28 µg/mL)
- IC50 [11]: 5 µM
- IC50 [13]: > 20 µM
- Metabolic half life (HT-29 cells [15]): 2.3 h
- Kd (PH domain of PDK1): 0.42 µM
- Kd (IRS1 PH domain): 1.74 ± 0.41 µM
